A value given as a limit tells only on which side of the number the result lay.

T1 sequence (Q15858 whole entry): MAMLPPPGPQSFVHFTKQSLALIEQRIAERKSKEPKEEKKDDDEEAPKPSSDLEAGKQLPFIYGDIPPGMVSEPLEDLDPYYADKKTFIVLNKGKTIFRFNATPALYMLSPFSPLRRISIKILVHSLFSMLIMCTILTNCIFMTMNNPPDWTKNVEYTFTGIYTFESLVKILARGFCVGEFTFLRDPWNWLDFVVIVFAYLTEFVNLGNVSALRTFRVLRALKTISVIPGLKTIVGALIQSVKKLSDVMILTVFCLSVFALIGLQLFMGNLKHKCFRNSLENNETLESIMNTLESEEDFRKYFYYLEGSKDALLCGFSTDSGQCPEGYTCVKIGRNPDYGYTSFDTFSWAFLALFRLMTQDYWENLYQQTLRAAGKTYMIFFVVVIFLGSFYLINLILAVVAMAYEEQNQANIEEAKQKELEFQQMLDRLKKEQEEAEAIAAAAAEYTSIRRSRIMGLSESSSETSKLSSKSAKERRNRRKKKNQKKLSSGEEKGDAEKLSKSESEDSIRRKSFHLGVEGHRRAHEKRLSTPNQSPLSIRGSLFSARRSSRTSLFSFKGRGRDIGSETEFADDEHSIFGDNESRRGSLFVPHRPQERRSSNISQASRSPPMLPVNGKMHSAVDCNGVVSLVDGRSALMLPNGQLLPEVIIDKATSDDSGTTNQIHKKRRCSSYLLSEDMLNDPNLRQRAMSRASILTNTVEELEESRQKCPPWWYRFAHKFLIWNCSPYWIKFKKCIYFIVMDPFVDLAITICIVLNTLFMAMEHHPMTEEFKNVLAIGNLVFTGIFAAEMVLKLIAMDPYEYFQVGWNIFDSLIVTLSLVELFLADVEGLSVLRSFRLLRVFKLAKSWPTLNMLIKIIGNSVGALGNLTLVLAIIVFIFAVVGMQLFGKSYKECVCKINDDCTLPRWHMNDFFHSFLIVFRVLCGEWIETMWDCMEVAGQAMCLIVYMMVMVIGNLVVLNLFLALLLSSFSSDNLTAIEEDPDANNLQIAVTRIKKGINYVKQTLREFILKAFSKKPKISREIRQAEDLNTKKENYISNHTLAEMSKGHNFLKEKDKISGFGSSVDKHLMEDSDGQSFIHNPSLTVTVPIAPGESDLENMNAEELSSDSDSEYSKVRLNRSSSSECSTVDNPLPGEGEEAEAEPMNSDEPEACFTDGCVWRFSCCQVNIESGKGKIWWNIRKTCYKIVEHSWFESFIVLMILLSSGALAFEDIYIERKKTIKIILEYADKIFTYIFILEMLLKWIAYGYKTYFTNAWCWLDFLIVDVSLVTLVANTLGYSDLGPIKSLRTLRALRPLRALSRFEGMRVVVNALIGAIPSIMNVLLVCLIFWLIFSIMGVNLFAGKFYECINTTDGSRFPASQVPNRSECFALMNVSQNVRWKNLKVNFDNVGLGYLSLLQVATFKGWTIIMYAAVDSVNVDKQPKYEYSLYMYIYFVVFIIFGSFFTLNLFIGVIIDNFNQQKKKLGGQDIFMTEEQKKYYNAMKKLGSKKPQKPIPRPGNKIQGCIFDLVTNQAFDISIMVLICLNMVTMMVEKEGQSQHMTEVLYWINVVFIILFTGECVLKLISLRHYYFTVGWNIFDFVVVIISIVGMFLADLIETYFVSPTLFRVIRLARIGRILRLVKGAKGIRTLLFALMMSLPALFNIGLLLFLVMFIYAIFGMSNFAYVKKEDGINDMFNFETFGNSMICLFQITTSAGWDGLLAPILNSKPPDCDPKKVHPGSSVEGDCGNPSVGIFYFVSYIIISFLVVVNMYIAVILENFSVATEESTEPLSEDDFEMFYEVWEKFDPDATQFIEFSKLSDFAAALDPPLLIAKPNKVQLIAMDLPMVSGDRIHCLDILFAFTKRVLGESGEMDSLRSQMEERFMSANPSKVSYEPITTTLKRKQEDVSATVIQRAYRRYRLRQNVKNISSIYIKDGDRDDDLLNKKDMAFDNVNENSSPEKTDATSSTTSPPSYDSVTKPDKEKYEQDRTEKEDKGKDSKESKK

The experiment has as its target T1, Nav1.7 (or SCN9A) channel (Homo sapiens, UniProt Q15858).
T1 construct: expressed in transfected cells
Kind of experiment: Nav1.7 PatchXpress automated whole-cell electrophysiology in HEK cells expressing hSCN9A. The format is cell-based. As to conditions: estimated IC50 from single point data, PatchXpress assay, held at V1/2 of inactivation, read-out: Nav1.7 EIC50. Here is the method: The ability of the compounds of formula (I) to block the Nav1.7 (or SCN9A) channel were measured using the assay described below.
Human Embryonic Kidney (HEK) cells were transfected with an hSCN9A construct using lipofectamine reagent (Invitrogen), using standard techniques. Cells stably expressing the hSCN9A constructs were identified by their resistance to G-418 (400 μg/ml). Clones were screened for expression using the whole-cell voltage-clamp technique.
HEK cells stably transfected with hSCN9A were maintained in DMEM medium supplemented with 10% heat-inactivated fetal bovine serum and 400 μg/ml G-418 in an incubator at 37° C. with a humidified atmosphere of 10% CO2. For HTS, cells were harvested from flasks by trypsinization and replated in an appropriate multi-well plate (typically 96 or 384 wells/plate) such that confluence would be achieved within 24 hours of plating. For electrophysiological studies, cells were removed from the culture flask by brief trypsinization and re-plated at low density onto glass cover slips. Cells were typically used for electrophysiological experiments within 24 to 72 hours after plating.
Cover slips containing HEK cells expressing hSCN9A were placed in a bath on the stage of an inverted microscope and perfused (approximately 1 ml/minutes) with extracellular solution of the following composition: 138 mM NaCl, 2 mM CaCl2, 5.4 mM KCl, 1 mM MgCl2, 10 mM glucose, and 10 mM HEPES, pH 7.4, with NaOH. […] The osmolarity of the extracellular and intracellular solutions was 300 mOsm/kg and 295 mOsm/kg, respectively. All recordings were made at room temperature (22-24° C.) using AXOPATCH 200B amplifiers and PCLAMP software (Axon Instruments, Burlingame, Calif.).
hSCN9A currents in HEK cells were measured using the whole-cell configuration of the patch-clamp technique (Hamill et al., 1981). Uncompensated series resistance was typically 2 to 5 mega ohms and >85% series resistance compensation was routinely achieved. As a result, voltage errors were negligible and no correction was applied. Current records were acquired at 20 to 50 KHz and filtered at 5 to 10 KHz.
HEK cells stably transfected with hSCN9A were viewed under Hoffman contrast optics and placed in front of an array of flow pipes emitting either control or compound-containing extracellular solutions. All compounds were dissolved in dimethyl sulfoxide to make 10 mM stock solutions, which were then diluted into extracellular solution to attain the final concentrations desired. […] The voltage-dependence of inactivation was determined by applying a series of depolarizing prepulses (8 sec long in 10 mV increments) from a negative holding potential. The voltage was then immediately stepped to 0 mV to assess the magnitude of the sodium current. Currents elicited at 0 mV were plotted as a function of prepulse potential to allow estimation of the voltage at which 50% of the channels were inactivated (midpoint of inactivation or V1/2). Compounds were tested for their ability to inhibit hSCN9A sodium channels by activating the channel with a 20 msec voltage step to 0 mV following an 8 second conditioning prepulse to the empirically determined V1/2. Compound effect (% inhibition) was determined by difference in current amplitude before and after application of test compounds. For ease of comparison, “estimated IC-50” (EIC50) values were calculated from single point electrophysiology data by the following equation, (tested concentration, uM)×(100-% inhibition/% inhibition). Inhibition values<20% and >80% were excluded from the calculation.
Electrophysiological assays were conducted with PatchXpress 7000 hardware and associated software (Molecular Devices Corp). All assay buffers and solutions were identical to those used in conventional whole-cell voltage clamp experiments described above. hSCN9A cells were grown as above to 50%-80% confluency and harvested by trypsinization. […]
Turning to `CCCn1cc(-c2cc(C(=O)NS(C)(=O)=O)ccc2Oc2ccc(Cl)cc2)cn1` [Example 41, 4-(4-chlorophenoxy)-N-(methylsulfonyl)-3-(1-propyl-1H-pyrazol-4-yl)benzamide], the IC50 is more than 3000 nM.

For `COc1ccc(-c2cc(C(=O)NS(C)(=O)=O)ccc2Oc2ccc(Cl)cc2)c(C)n1` [Example 42, 4-(4-chlorophenoxy)-3-(6-methoxy-2-methylpyridin-3-yl)-N-(methylsulfonyl)benzamide], the IC50 was 7500 nM.

`CS(=O)(=O)NC(=O)c1ccc(Oc2ccc(Cl)cc2)c(-c2ccc(C(F)(F)F)cc2)c1` [Example 43, 6-(4-chlorophenoxy)-N-(methylsulfonyl)-4′-(trifluoromethyl)biphenyl-3-carboxamide]: the IC50 was 630 nM.

`COc1cc(-c2cc(C(=O)NS(C)(=O)=O)ccc2Oc2ccc(Cl)cc2)ccn1` [Example 45, 4-(4-chlorophenoxy)-3-(2-methoxypyridin-4-yl)-N-(methylsulfonyl)benzamide]: the IC50 was 2000 nM.

Take `COc1ncccc1-c1cc(C(=O)NS(C)(=O)=O)ccc1Oc1ccc(Cl)cc1` [Example 47, 4-(4-chlorophenoxy)-3-(2-methoxypyridin-3-yl)-N-(methylsulfonyl)benzamide]: the IC50 was 92 nM.

Consider `Cn1cc(-c2cc(C(=O)NS(C)(=O)=O)ccc2Oc2ccc(Cl)cc2)cn1` [Example 48, 4-(4-chlorophenoxy)-3-(1-methyl-1H-pyrazol-4-yl)-N-(methylsulfonyl)benzamide], for which the IC50 was 9800 nM.

Regarding `CS(=O)(=O)NC(=O)c1ccc(Oc2ccc(Cl)cc2)c(-c2cnc(N)nc2)c1` [Example 49, 3-(2-aminopyrimidin-5-yl)-4-(4-chlorophenoxy)-N-(methylsulfonyl)benzamide], the IC50 was more than 3000 nM.

For the molecule `COc1ccc(-c2cc(C(=O)NS(C)(=O)=O)ccc2Oc2ccc(Cl)cc2)cc1` [Example 50, 6-(4-chlorophenoxy)-4′-methoxy-N-(methylsulfonyl)-biphenyl-3-carboxamide], the IC50 was 730 nM.

On to `COc1ncccc1-c1cc(C(=O)NS(C)(=O)=O)ccc1Oc1ccccc1F` [Example 51, 4-(2-fluorophenoxy)-3-(2-methoxypyridin-3-yl)-N-(methylsulfonyl)benzamide], for which the IC50 was 1700 nM.

Consider `COc1ncccc1-c1cc(C(=O)NS(C)(=O)=O)ccc1Oc1cccc(Cl)c1` [Example 52, 4-(3-chlorophenoxy)-3-(2-methoxypyridin-3-yl)-N-(methylsulfonyl)benzamide], for which the IC50 was 460 nM.

Turning to `COc1ncccc1-c1cc(C(=O)NS(C)(=O)=O)ccc1Oc1cc(F)cc(Cl)c1` [Example 53, 4-(3-chloro-5-fluorophenoxy)-3-(2-methoxypyridin-3-yl)-N-(methylsulfonyl)benzamide], the IC50 is 120 nM.

On to `COc1ncccc1-c1cc(C(=O)NS(C)(=O)=O)ccc1Oc1cccc(C(C)C)c1` [Example 54, 4-(3-isopropylphenoxy)-3-(2-methoxypyridin-3-yl)-N-(methylsulfonyl)benzamide], for which the IC50 was 120 nM.

Turning to `COc1ncccc1-c1cc(C(=O)NS(C)(=O)=O)ccc1Oc1ccc(F)c(F)c1` [Example 55, 4-(3,4-difluorophenoxy)-3-(2-methoxypyridin-3-yl)-N-(methylsulfonyl)benzamide], the IC50 was 440 nM.

As for `COc1ncccc1-c1cc(C(=O)NS(C)(=O)=O)ccc1Oc1ccc(C#N)cc1` [Example 56, 4-(4-cyanophenoxy)-3-(2-methoxypyridin-3-yl)-N-(methylsulfonyl)benzamide], the IC50 was 2400 nM.

Turning to `COc1cc(Cl)cc(Oc2ccc(C(=O)NS(C)(=O)=O)cc2-c2cccnc2OC)c1` [Example 57, 4-(3-chloro-5-methoxyphenoxy)-3-(2-methoxypyridin-3-yl)-N-(methylsulfonyl)benzamide], the IC50 was 660 nM.

For the molecule `COc1ncccc1-c1cc(C(=O)NS(C)(=O)=O)ccc1Oc1ccccc1OC(F)(F)F` [Example 58, 3-(2-methoxypyridin-3-yl)-N-(methylsulfonyl)-4-[2-(trifluoromethoxy)phenoxy]benzamide], the IC50 was more than 1000 nM.

Regarding `COc1ncccc1-c1cc(C(=O)NS(C)(=O)=O)ccc1Oc1cccc(F)c1` [Example 59, 4-(3-fluorophenoxy)-3-(2-methoxypyridin-3-yl)-N-(methylsulfonyl)benzamide], the IC50 is 370 nM.

Consider `CCc1cc(Oc2ccc(C(=O)NS(C)(=O)=O)cc2-c2cccnc2OC)ccc1Cl` [Example 60, 4-(4-chloro-3-ethylphenoxy)-3-(2-methoxypyridin-3-yl)-N-(methylsulfonyl)benzamide], for which the IC50 was 18 nM.

Take `COc1ncccc1-c1cc(C(=O)NS(C)(=O)=O)ccc1Oc1cccc(C(F)(F)F)c1` [Example 61, 3-(2-methoxypyridin-3-yl)-N-(methylsulfonyl)-4-[3-(trifluoromethyl)phenoxy]benzamide]: the IC50 was 66 nM.

As to `COCc1ccc(Oc2ccc(C(=O)NS(C)(=O)=O)cc2-c2cccnc2OC)cc1` [Example 62, 4-[4-(methoxymethyl)phenoxy]-3-(2-methoxypyridin-3-yl)-N-(methylsulfonyl)benzamide], the IC50 is 1200 nM.

Consider `CCc1ccc(Oc2ccc(C(=O)NS(C)(=O)=O)cc2-c2cccnc2OC)cn1` [Example 63, 4-[(6-ethylpyridin-3-yl)oxy]-3-(2-methoxypyridin-3-yl)-N-(methylsulfonyl)benzamide], for which the IC50 is 3900 nM.

Regarding `COc1ncccc1-c1cc(C(=O)NS(C)(=O)=O)ccc1Oc1ccc(Cl)cc1F` [Example 64, 4-(4-chloro-2-fluorophenoxy)-3-(2-methoxypyridin-3-yl)-N-(methylsulfonyl)benzamide], the IC50 was 540 nM.

With `COc1ccc(Oc2ccc(C(=O)NS(C)(=O)=O)cc2-c2cccnc2OC)cc1` [Example 65, 4-(4-methoxyphenoxy)-3-(2-methoxypyridin-3-yl)-N-(methylsulfonyl)benzamide], the IC50 is 640 nM.

On to `COc1ncccc1-c1cc(C(=O)NS(C)(=O)=O)ccc1Oc1ccc(Cl)c(F)c1` [Example 66, 4-(4-chloro-3-fluorophenoxy)-3-(2-methoxypyridin-3-yl)-N-(methylsulfonyl)benzamide], for which the IC50 is 98 nM.

As to `CCOc1ccccc1Oc1ccc(C(=O)NS(C)(=O)=O)cc1-c1cccnc1OC` [Example 67, 4-(2-ethoxyphenoxy)-3-(2-methoxypyridin-3-yl)-N-(methylsulfonyl)benzamide], the IC50 is 2800 nM.

Take `COc1ncccc1-c1cc(C(=O)NS(C)(=O)=O)ccc1Oc1cccc(OC(F)(F)F)c1` [Example 68, 3-(2-methoxypyridin-3-yl)-N-(methylsulfonyl)-4-[3-(trifluoromethoxy)phenoxy]benzamide]: the IC50 was 83 nM.

In the case of `COc1ncccc1-c1cc(C(=O)NS(C)(=O)=O)ccc1Oc1cc(F)cc(F)c1` [Example 69, 4-(3,5-difluorophenoxy)-3-(2-methoxypyridin-3-yl)-N-(methylsulfonyl)benzamide], the IC50 was 440 nM.

Regarding `COc1ccc(Oc2ccc(C(=O)NS(C)(=O)=O)cc2-c2cccnc2OC)cn1` [Example 70, 3-(2-methoxypyridin-3-yl)-4-[(6-methoxypyridin-3-yl)oxy]-N-(methylsulfonyl)benzamide], the IC50 was 2200 nM.

Take `COc1ncccc1-c1cc(C(=O)NS(C)(=O)=O)ccc1Oc1cccc(C#N)c1` [Example 71, 4-(3-cyanophenoxy)-3-(2-methoxypyridin-3-yl)-N-(methylsulfonyl)benzamide]: the IC50 is 2500 nM.

Regarding `COc1ncccc1-c1cc(C(=O)NS(C)(=O)=O)ccc1Oc1cc(F)cc(C(F)(F)F)c1` [Example 72, 4-[3-fluoro-5-(trifluoromethyl)phenoxy]-3-(2-methoxypyridin-3-yl)-N-(methylsulfonyl)benzamide], the IC50 was 100 nM.
